Data: publication PMC8329197, “Compounds targeting OSBPL7 increase ABCA1-dependent cholesterol efflux preserving kidney function in two models of kidney disease” (Nature Communications, 2021)
Where “and” joins values, the source holds several entries; their conditions need not be identical. Equal entries are not always repeated.

Columns and labels:
ABCA1 protein = test: Cell fractionation: ABCA1 in plasma membrane and microsomal fractions of podocytes; type: cell-based, human; conditions: podocytes; Cpd A 5 µM, Cpd G 10 µM
Method: Lysates, or cell fractions were incubated in Laemmli buffer at 55 °C for 10 min under reducing conditions. A total of 30 μg of protein from cell lysates or one-third of the volume collected in cell fraction preparations was separated by SDS-PAGE in 4–20% gradient gels (Biorad) and proteins were then transferred to PVDF membranes. After blocking with 5% TBS-milk, membranes were probed with primary antibodies overnight at 4 °C. The following primary antibodies were used: mouse anti-ABCA1 (Abcam; 1:1000), rabbit anti-GAPDH antibody (Millipore; 1:10,000), mouse anti-actin (CP01, Millipore 1:10,000), anti-MEK, anti-ERp72, anti-V5 and anti-Na^+/K^+ ATPase (Cell Signaling; all 1:1000), and rabbit anti-OSBPL7 (Sigma; 1:1000). After washing, membranes were incubated with anti-rabbit or and anti-mouse IgG-HRP antibodies (Promega, 1:10,000). Signals were detected after incubation with Westernbright ECL HRP substrate (Advansta) and luminescence signals were captured with Azure C600 Gel Imaging workstation (Azure Biosystems Inc, USA) or X-ray films.
Differentiated podocytes were treated with compounds Cpd C (1 μM), Cpd A (5 μM), or Cpd G (10 μM) for 18 h, washed and then harvested in ice-cold PBS. Cells were centrifuged at 1000 × g for 5 min, the supernatant was carefully removed, and the pellet resuspended in hypotonic buffer (15 mM KCl, 1.5 mM MgCl2, 10 mM HEPES and 1 mM DTT) supplemented with a protease inhibitor cocktail (Roche). Cells were disrupted with a glass douncer, and sucrose was added to achieve final concentration of 227 mM. Cell lysates were centrifuged at 1000 × g for 30 min at 4 °C. The supernatant was then transferred to a new tube and centrifuged at 10,000 × g for 15 min at 4 °C. The pellet, containing the microsomal fraction was collected and the supernatant was transferred to a new tube and centrifuged at 100,000 × g for 1 h at 4 °C. The pelleted plasma membrane fraction was collected and the supernatant, containing the organelle-free cytosolic fraction, was concentrated in Vivaspin 500 filter columns. Western blot was performed using antibodies for ABCA1 and specific markers for each membrane fraction as described above. Na^+/K^+ ATPase was used to identify the plasma membrane fraction, ERp72 as a marker for the microsomal-enriched fraction, and MEK as the control for the non-membranous cytosolic fraction.

human podocytes = test: apoAI-mediated cholesterol efflux in human podocytes; type: cell-based; conditions: for ApoA1-mediated cholesterol efflux (%) in podocytes: single experiments
Method: Cell lines were purchased from ATCC and subcultured for no more than passage 15, except for human podocytes, which were originally from Dr Jochen Reiser. Conditionally immortalized human podocytes were cultured under permissive conditions at 33 °C, in RPMI medium (Corning) containing 10% FBS (GIBCO), 1% penicillin/streptomycin, 0.01 mg/ml recombinant human insulin, 0.0055 mg/ml human transferrin (substantially iron-free), and 0.005 μg/ml sodium selenite (ITS, Corning). To induce differentiation, podocytes were cultured at 37 °C for 14 days in RPMI medium containing 10% FBS (GIBCO) and 1% penicillin/streptomycin. Differentiated podocytes were starved in RPMI-0.2% FBS for 18 h and then treated with 1 μM, 5 μM, and 10 μM of compounds freshly prepared in DMSO for 18 h at 37 °C as indicated.
Human podocytes differentiated for 13 days were labeled for 24 h at 37 °C in RPMI medium containing 2% FBS and [^3H]-cholesterol (1 μCi/ml, American Radiolabeled Chemicals). Cells were then washed 3 times with PBS and incubated with RPMI supplemented with 0.2% fat free-BSA (Sigma) with or without compounds for 18-h at 37 °C. The compounds were used at the following concentrations: Cpd C (1 μM), Cpd A (1 μM, 5 μM) and Cpd G (1 μM, 5 μM, 10 μM). Following the 18-h incubation, human apoAI (Calbiochem) was added to the media, (20 μg/mL final concentration) and the cells were incubated for another 18 h at 37 °C. Aliquots of medium collected before (T = 0 h) and after (T = 18 h) the addition of apoAI were centrifuged at 12,000 × g for 5 min and the radioactivity in the supernatant was counted by liquid scintillation. Cells were then washed with PBS, lysed 0.1% SDS, 0.1M NaOH and the radioactivity in the lysates was quantified by liquid scintillation. apoAI-mediated cholesterol efflux, expressed as %, was calculated as the amount of label released to the medium after adding apoAI (the difference in radioactivity in the medium before and after adding ApoA1) divided by the amount of total label in each well (radioactivity released to the media plus radioactivity in the lysed cells).

[1] = test system: Adriamycin (ADR)-induced nephropathy in Balb/c mice; test: ADR nephropathy: liver total cholesterol, cholesterol esters, triglycerides; type: in vivo, mouse; conditions: ADR model; individual animals
[2] = test system: Adriamycin (ADR)-induced nephropathy in Balb/c mice; test: ADR nephropathy: WBC, hemoglobin, hematocrit, ALT, AST; type: in vivo, mouse
[3] = test system: Adriamycin (ADR)-induced nephropathy in Balb/c mice; test: Adriamycin-induced nephropathy, main study: albumin/creatinine ratio and body weight
[4] = ADR-induced nephropathy, 28 days treatment, 25th quartile
[5] = ADR-induced nephropathy, 28 days treatment, 75th quartile
[6] = ADR-induced nephropathy, 28 days treatment, group maximum
[7] = ADR-induced nephropathy, 28 days treatment, group median
[8] = ADR-induced nephropathy, 28 days treatment, group minimum
[9] = ADR-induced nephropathy, 28 days treatment, individual mouse values
[10] = 28 days after ADR, Cpd G 100 mg/Kg

Q: For O=C(N[C@@H]1CCCC[C@H]1O)c1cnc(OCC(F)(F)F)c(-c2ccc(Cl)c(Cl)c2)c1 [Cpd G], which “ABCA1 at the plasma membrane” value (ABCA1 protein) is on record?
A: Its value is “increased ABCA1 at the plasma membrane”.

Q: And the “ABCA1 in microsomal fractions” value (ABCA1 protein)?
A: Its value is “did not increase ABCA1 in microsomal fractions”.

Q: And the “ApoA1-mediated cholesterol efflux (%) in podocytes” value (human podocytes; 1 uM)?
A: The value was 0.3% and 1.2% and 1.6%.

Q: What about the “ApoA1-mediated cholesterol efflux (%) in podocytes” value (human podocytes; 5 uM) of the same molecule?
A: The value was 0% and 2.5% and 2.3%.

Q: What about the “ApoA1-mediated cholesterol efflux (%) in podocytes” value (human podocytes; 10 uM) of the same molecule?
A: Its value is 4.4% and 7.9%.

Q: What about the “Increase in apoAI-mediated cholesterol efflux vs. untreated cells” value (human podocytes; Cpd G 10 µM, Cpd A 5 µM, Cpd C 1 µM) of the same molecule?
A: The value was ~2 fold.

Q: What about the “LIVER CHOLESTEROL ESTERS” value [1] of the same molecule?
A: The value was 2.88 nmol CE/ mg protein and 6.03 nmol CE/ mg protein and 6.11 nmol CE/ mg protein and 1.54 nmol CE/ mg protein and 4.33 nmol CE/ mg protein and 2.97 nmol CE/ mg protein and 3.06 nmol CE/ mg protein.

Q: And the “LIVER TOTAL CHOLESTEROL” value [1]?
A: Its value is 118 nmol Cholesterol/ mg protein and 122 nmol Cholesterol/ mg protein and 97.7 nmol Cholesterol/ mg protein and 114 nmol Cholesterol/ mg protein and 146 nmol Cholesterol/ mg protein.

Q: And the “LIVER TRIGLICERIDES” value [1]?
A: The value was 35 nmol Triglycerides/ mg protein and 30 nmol Triglycerides/ mg protein and 48.4 nmol Triglycerides/ mg protein and 51 nmol Triglycerides/ mg protein and 39 nmol Triglycerides/ mg protein.

Q: And the “ADR-induced increase of ALT and AST” value ([2]; 28 days)?
A: Its value is “partially attenuated”.

Q: And the “ALT, Median (IQR)” value ([2]; ADR-induced nephropathy)?
A: Its value is 213 (105-239) U/L.

Q: And the “ALT, Range” value ([2]; ADR-induced nephropathy)?
A: Its value is 90-317 U/L.

Q: What about the “AST, Median (IQR)” value ([2]; ADR-induced nephropathy) of the same molecule?
A: The value was 213 (156-220) U/L.

Q: What about the “AST, Range” value ([2]; ADR-induced nephropathy) of the same molecule?
A: Its value is 124-401 U/L.

Q: And the “HTC, Median (IQR)” value ([2]; ADR-induced nephropathy)?
A: Its value is 51 (48-52) %.

Q: And the “HTC, Range” value ([2]; ADR-induced nephropathy)?
A: Its value is 46-57%.

Q: And the Hgb, Median (IQR) ([2]; ADR-induced nephropathy)?
A: Its Hgb, Median (IQR) is 13 g/dL.

Q: And the Hgb, Range ([2]; ADR-induced nephropathy)?
A: Its Hgb, Range is 12.2 to 13.7 g/dL.

Q: What about the “WBC, Median (IQR)” value ([2]; ADR-induced nephropathy) of the same molecule?
A: The value was 5.2 (3.4-6.5) x103cells/µL.

Q: What about the “WBC, Range” value ([2]; ADR-induced nephropathy) of the same molecule?
A: The value was 2.5-6.5 x103cells/µL.

Q: What about the “HTC, QR(25)” value [2, 4] of the same molecule?
A: The value was 49.25%.

Q: What about the Hgb, QR(25) [2, 4] of the same molecule?
A: Its Hgb, QR(25) is 12.6 g/dL.

Q: What about the “WBC, QR(25)” value [2, 4] of the same molecule?
A: Its value is 3.85 x 10^3 cells/ul.

Q: What about the “HTC, QR(75)” value [2, 5] of the same molecule?
A: The value was 51.75%.

Q: What about the Hgb, QR(75) [2, 5] of the same molecule?
A: Its Hgb, QR(75) is 13.4 g/dL.

Q: What about the “WBC, QR(75)” value [2, 5] of the same molecule?
A: Its value is 6.425 x 10^3 cells/ul.

Q: What about the “HTC, Max” value [2, 6] of the same molecule?
A: Its value is 57%.

Q: What about the Hgb, Max [2, 6] of the same molecule?
A: Its Hgb, Max is 13.7 g/dL.

Q: What about the “WBC, Max” value [2, 6] of the same molecule?
A: Its value is 9.8 x 10^3 cells/ul.

Q: And the “HTC, Median” value [2, 7]?
A: Its value is 51%.

Q: And the Hgb, Median [2, 7]?
A: The Hgb, Median was 13.1 g/dL.

Q: And the “WBC, Median” value [2, 7]?
A: Its value is 5.45 x 10^3 cells/ul.

Q: And the “HTC, Min” value [2, 8]?
A: Its value is 46%.

Q: What about the Hgb, Min [2, 8] of the same molecule?
A: The Hgb, Min was 12.2 g/dL.

Q: And the “WBC, Min” value [2, 8]?
A: The value was 2.5 x 10^3 cells/ul.

Q: And the “Alanine Aminotransferase (ALT)” value [2, 9]?
A: The value was 220 U/dL and 105 U/dL and 213 U/dL and 156 U/dL and 239 U/dL and 317 U/dL and 90 U/dL.

Q: What about the “Aspartate Aminotransferase (AST)” value [2, 9] of the same molecule?
A: Its value is 217 U/dL and 156 U/dL and 401 U/dL and 213 U/dL and 220 U/dL and 124 U/dL.

Q: What about the “Hematocrit HTC” value [2, 9] of the same molecule?
A: Its value is 57% and 51% and 54% and 47% and 46% and 49% and 52% and 50%.

Q: What about the “White Blood Cells WBC” value [2, 9] of the same molecule?
A: Its value is 9.8 x 10^3 cells/ul and 5.5 x 10^3 cells/ul and 6.2 x 10^3 cells/ul and 2.5 x 10^3 cells/ul and 5.2 x 10^3 cells/ul and 6.5 x 10^3 cells/ul and 3.4 x 10^3 cells/ul and 5.4 x 10^3 cells/ul and 8.9 x 10^3 cells/ul.

Q: And the “Effect on weight loss” value ([3]; 28 days after ADR)?
A: Its value is “substantially reduced weight loss”.

Q: And the “Mice that showed no weight loss” value [3, 10]?
A: Its value is 7 out of 10.

Q: What about the “Weight loss of the remaining 3 mice” value [3, 10] of the same molecule?
A: The value was “less than 5%”.

Q: And the “ACR, median” value ([3]; 28 days after ADR, Cpd A 30, Cpd G 100, Cpd C 10 mg/Kg, group median)?
A: The value was 0.6 mg albumin/mg creatinine and 0.576 mg albumin/mg creatinine.

Q: And the “Weight (d28)” value ([3]; animal weight when therapy finished, single animals)?
A: Its value is 20 and 21 and 20.5 and 16 and 19 and 17.

Q: And the “Weight Change (as % of weight at day 0), Median” value ([3]; day 28 after ADR, Cpd A 30, Cpd G 100, Cpd C 10 mg/Kg)?
A: The value was 0%.

Q: And the “Weight Change (as % of weight at day 0)” value ([3]; day 28 after ADR, Cpd A 30, Cpd G 100, Cpd C 10 mg/Kg, single animals)?
A: The value was 5% and 2.5% and 0% and -9.1% and -5%.

Q: What about the “ACR values (mg Albumin / mg Creatinine)” value ([3]; spot urine 28 days after ADR, oral daily Cpd A 30, Cpd G 100, Cpd C 10 mg/Kg, single animals) of the same molecule?
A: Its value is 3.053 mg Albumin / mg Creatinine and 3.33 mg Albumin / mg Creatinine and 0.105 mg Albumin / mg Creatinine and 0.292 mg Albumin / mg Creatinine and 4.643 mg Albumin / mg Creatinine and 4.983 mg Albumin / mg Creatinine and 0.09 mg Albumin / mg Creatinine and 0.018 mg Albumin / mg Creatinine and 0.86 mg Albumin / mg Creatinine and 0.271 mg Albumin / mg Creatinine.

Q: And the “Times lower ACR” value ([3]; vs ADR+V, 28 days, Cpd A 30, Cpd G 100 mg/kg/day)?
A: The value was 30 times.
